Tested on: traumatic osteonecrosis (femoral head)
Assay: Model of traumatic osteonecrosis of the femoral head in rats, six weeks after operation
Assay type: in vivo, Wistar rats
Settings: for BMC / BMD: femoral head, DEXA; for XR Head Area (% Contra): operated femoral head, six weeks
Excerpt: A model of traumatic osteonecrosis was utilised in 24 female 14-week-old Wistar rats. The animals were followed for six weeks after an operation designed to disrupt the blood supply to the femoral head. The six week time point was chosen as a time point when femoral head collapse is known to have occurred in this model ^1. Animal ethics approval was received.
Rats were randomised in lots of 4 into three groups according to the schedule below. Controls receive only saline (S) injections via a subcutaneous route. Post-treated animals received saline only pre-operatively, but zoledronic acid (ZA) (Novartis) 0.1 mg/kg, from commercial stock, was administered by subcutaneous injection post-operatively at 1 and 4 weeks. Pre and Post-treated animals received zoledronic acid 0.1 mg/kg at all three time points.
The same operation was performed on each rat at time zero. All animals were weighed accurately before anaesthesia. Animals were kept warm during surgery and recovery. Anaesthesia was induced with a mixture of Ketamine 75 mg/kg and Xylazine 10 mg/kg. Drugs were mixed in the same syringe just prior to administration and given 0.2 mL per 100 g BW IM. Induction occurred within 5-10 minutes.
After sterile preparation and shaving of the right lower extremity, an open approach was made to the hip joint. The capsule was opened, and the right femoral head was dislocated from the acetabulum. The ligamentum teres divided, disrupting any blood supply from that source. The entire femoral neck was denuded of soft tissue by polishing with a vicryl suture. This disrupted the lateral epiphyseal artery and any other vessels supplying the head via the femoral neck.
Dual fluorescent labels were applied at weeks 4 and 5: at week 4 demeclocycline 30 mg/kg was administered intraperitoneally, and at week 5 calcein 20 mg/kg was administered intraperitoneally. One hour prior to culling 70 MBq Tc99 MDP was administered subcutaneously to allow bone scintigraphy to be performed on harvested specimens.
After culling, right and left proximal femora were harvested and fixed in 4% paraformaldehyde. Radiographs were taken in pairs on high quality film with a Faxitron Shielded Cabinet X-Ray System (Hewlett Packard, McMinnville, Oreg. X-ray images were digitised and analysed using Bioquant image analysis system (R&M Biometrics Inc., Nashville, Tenn.) connected to a digitizing tablet (GTCO CalComp, Inc., Columbia, Md.). Bone area, height and width of the femoral head were recorded and compared to the contralateral side. Scintigraphy scans were taken using 4 mm aperture pinholes. BMD and BMC were measured with a pDEXA Sabre scanner (Norland, Ft Atkinson Wis.).
Specimens were resin embedded and sectioned undecalcified. Coronal sections (6 microns) were cut through the femoral head. Sections were stained with von Kossa to assess trabecular bone volume and structure. Fluorescent microscopy was used on unstained sections to image the fluorescent labels and assess bone formation.

[1] = Post-Treated: 0.1 mg/kg s.c. at 1 and 4 weeks post-operatively
[2] = Pre- and Post: 0.1 mg/kg s.c. at all three time points

Structure (SMILES): O=P(O)(O)C(O)(Cn1ccnc1)P(=O)(O)O [zoledronic acid, 1-hydroxy-2-[(1H-imidazol-1-yl)ethylidine] bisphosphonic acid]
- BMC [1]: 0.012 g
- BMD [1]: 0.11 g/cm^2
- XR Head Area (% Contra) [1]: 79 % Contra
- BMC [2]: 0.015 g
- BMD [2]: 0.12 g/cm^2
- XR Head Area (% Contra) [2]: 85 % Contra

From patent US7425549B2, “Drug for the treatment of osteonecrosis and for the management of patients at risk of developing osteonecrosis” (The Royal Alexandra Hospital for Children, priority 2001, dated 2008)
